Four compounds from patent publication US20210253568A1, “AZAINDOLE DERIVATIVES AS RHO-KINASE INHIBITORS” (CHIESI FARMACEUTICI S.p.A., priority 2018, published 2021) can be followed below.

The target in experiment [1] is ROCK 2 (Homo sapiens, UniProt O75116). The experiment in a line: In vitro Rho kinase inhibitory activity assay (ADP-Glo), Rho kinase 2. The format is biochemical. The following applies: Ki by Cheng-Prusoff from IC50; 10 μM ATP, 25° C., expressed as range of activity. As to the method:
(§1) The effectiveness of compounds of the present invention to inhibit Rho kinase activity can be determined in a 10 μl assay containing 40 mM Tris pH7.5, 20 mM MgCl2 0.1 mg/mi BSA, 50 μM DTT and 2.5 μM peptide substrate (Myelin Basic Protein) using an ADP-Glo kit (Promega). Compounds were dissolved in DMSO such that the final concentration of DMSO was 1% in the assay. All reactions/incubations are performed at 25° C. Compound (2 ul) and either Rho kinase 1 or 2 (4 μl) were mixed and incubated for 30 mins. Reactions were initiated by addition of ATP (4 μl) such that the final concentration of ATP in the assay was 10 μM. After a 1 hour incubation 10 μl of ADP-Glo Reagent was added and after a further 45 minute incubation 20 ul of Kinase Detection Buffer was added and the mixture incubated for a further 30 minutes. The luminescent signal was measured on a luminometer. […] Compounds were tested in dose-response format and the inhibition of kinase activity was calculated at each concentration of compound. To determine the IC50 (concentration of compound required to inhibit 50% of the enzyme activity) data were fit to a plot of % inhibition vs Log10 compound concentration using a sigmoidal fit with a variable slope and fixing the maximum to 100% and the minimum to 0%. To determine the Ki values the Cheng-Prusoff equation was utilized (Ki=IC50/(1+[S]/Km).
On the technique in general: In ADP-Glo the light output rises with the ADP produced.

Experiment [2] has as its target ROCK 1 (Homo sapiens, UniProt Q13464). Kind of experiment: In vitro Rho kinase inhibitory activity assay (ADP-Glo), Rho kinase 1. The format is biochemical. The following applies: Ki by Cheng-Prusoff from IC50; 10 μM ATP, 25° C., expressed as range of activity. As to the method: as §1

Chain of ROCK 1 (Q13464 whole entry): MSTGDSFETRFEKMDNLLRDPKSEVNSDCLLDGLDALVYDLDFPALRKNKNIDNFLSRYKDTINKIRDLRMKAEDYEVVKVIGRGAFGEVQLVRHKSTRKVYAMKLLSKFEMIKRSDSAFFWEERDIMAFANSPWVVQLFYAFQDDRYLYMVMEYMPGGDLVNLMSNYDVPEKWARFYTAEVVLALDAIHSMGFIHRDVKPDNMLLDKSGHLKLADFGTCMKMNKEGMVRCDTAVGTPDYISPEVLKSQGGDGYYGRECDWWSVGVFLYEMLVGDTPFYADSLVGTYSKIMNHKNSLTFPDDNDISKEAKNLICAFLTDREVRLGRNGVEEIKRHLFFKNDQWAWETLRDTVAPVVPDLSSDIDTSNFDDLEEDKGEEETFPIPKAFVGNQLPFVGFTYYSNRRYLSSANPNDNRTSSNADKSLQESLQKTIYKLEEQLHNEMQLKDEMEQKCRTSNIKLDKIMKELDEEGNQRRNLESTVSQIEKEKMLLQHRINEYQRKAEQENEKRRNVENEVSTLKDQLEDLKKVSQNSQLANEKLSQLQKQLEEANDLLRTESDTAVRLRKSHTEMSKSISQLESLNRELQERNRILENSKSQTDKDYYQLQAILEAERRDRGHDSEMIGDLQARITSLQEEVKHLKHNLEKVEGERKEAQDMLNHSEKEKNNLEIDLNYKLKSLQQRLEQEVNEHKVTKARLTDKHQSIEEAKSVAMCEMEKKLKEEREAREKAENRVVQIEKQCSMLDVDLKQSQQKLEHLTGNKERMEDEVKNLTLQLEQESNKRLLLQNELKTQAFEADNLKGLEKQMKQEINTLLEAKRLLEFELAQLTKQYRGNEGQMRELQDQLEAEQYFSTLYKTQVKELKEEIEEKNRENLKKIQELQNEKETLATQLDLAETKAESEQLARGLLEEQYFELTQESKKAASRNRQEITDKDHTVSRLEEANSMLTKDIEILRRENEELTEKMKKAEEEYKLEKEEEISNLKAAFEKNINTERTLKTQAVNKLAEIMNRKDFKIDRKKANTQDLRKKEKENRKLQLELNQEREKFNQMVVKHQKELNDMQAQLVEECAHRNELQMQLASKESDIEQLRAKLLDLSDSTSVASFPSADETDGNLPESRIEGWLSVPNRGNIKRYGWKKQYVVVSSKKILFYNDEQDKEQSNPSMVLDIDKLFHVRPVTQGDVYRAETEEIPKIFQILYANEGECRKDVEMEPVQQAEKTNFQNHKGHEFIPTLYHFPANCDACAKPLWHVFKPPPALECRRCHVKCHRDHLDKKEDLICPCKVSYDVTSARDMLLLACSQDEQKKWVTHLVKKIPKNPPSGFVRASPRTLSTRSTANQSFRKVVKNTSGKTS
Chain of ROCK 2 (O75116 whole entry): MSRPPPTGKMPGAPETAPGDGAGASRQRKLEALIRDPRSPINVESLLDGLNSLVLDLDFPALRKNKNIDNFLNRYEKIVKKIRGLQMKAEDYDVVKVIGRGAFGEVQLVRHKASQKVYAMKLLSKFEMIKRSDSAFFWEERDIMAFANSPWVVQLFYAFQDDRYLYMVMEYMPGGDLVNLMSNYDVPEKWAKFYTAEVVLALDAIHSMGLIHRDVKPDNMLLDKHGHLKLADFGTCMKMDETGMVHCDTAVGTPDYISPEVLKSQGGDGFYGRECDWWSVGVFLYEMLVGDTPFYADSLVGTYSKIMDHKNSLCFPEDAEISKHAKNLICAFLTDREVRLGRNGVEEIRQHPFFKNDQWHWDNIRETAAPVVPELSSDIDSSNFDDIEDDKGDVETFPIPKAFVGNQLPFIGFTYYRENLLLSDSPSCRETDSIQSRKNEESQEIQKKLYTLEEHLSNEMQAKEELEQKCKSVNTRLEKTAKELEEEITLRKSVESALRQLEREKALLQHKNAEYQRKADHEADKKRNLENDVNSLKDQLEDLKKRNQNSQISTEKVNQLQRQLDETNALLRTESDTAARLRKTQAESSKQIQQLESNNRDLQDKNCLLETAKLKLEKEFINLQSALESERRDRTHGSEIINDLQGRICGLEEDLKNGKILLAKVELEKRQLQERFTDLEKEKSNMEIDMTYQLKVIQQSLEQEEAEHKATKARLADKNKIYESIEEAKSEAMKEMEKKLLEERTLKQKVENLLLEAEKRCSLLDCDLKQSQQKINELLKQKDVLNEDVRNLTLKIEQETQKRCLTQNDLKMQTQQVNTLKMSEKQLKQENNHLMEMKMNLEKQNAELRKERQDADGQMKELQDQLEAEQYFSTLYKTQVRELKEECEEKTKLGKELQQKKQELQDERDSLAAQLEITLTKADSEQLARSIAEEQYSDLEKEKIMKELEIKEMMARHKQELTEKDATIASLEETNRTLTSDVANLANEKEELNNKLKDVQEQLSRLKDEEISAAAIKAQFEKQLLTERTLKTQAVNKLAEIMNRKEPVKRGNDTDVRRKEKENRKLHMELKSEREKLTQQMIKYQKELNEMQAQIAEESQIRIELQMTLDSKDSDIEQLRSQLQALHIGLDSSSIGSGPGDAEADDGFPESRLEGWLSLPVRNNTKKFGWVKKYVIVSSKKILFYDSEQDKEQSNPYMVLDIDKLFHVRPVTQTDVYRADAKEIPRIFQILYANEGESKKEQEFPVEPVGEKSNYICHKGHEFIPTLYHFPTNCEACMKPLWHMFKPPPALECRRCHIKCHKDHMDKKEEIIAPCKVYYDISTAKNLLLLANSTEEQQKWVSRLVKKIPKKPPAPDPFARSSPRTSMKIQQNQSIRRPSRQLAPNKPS

In the case of `O=S(=O)(CCNc1cc(-c2c[nH]c3nccc(Oc4ccc5c(c4)CNCC5)c23)ncn1)c1ccccc1` [Example 29, N-(2-(phenylsulfonyl)ethyl)-6-(4-((1,2,3,4-tetrahydroisoquinolin-7-yl)oxy)-1H-pyrrolo[2,3-b]pyridin-3-yl)pyrimidin-4-amine], the Ki in experiment [1] and in experiment [2] was less than 3 nM throughout.
Take `Cc1ccc(CNc2cc(-c3c[nH]c4nccc(Oc5ccc6c(c5)CNCC6)c34)ccn2)nc1` [Example 37, N-((5-methylpyridin-2-yl)methyl)-4-(4-((1,2,3,4-tetrahydroisoquinolin-7-yl)oxy)-1H-pyrrolo[2,3-b]pyridin-3-yl)pyridin-2-amine]: the values for the inhibition constant Ki in experiment [1] and in experiment [2] were less than 3 nM and 3 to 30 nM, respectively.
Consider `CC1(C)CCN(C(=O)Nc2cc(-c3c[nH]c4nccc(Oc5ccc6c(c5)CNCC6)c34)ccn2)CC1` [Example 46, 4,4-dimethyl-N-(4-(4-((1,2,3,4-tetrahydroisoquinolin-7-yl)oxy)-1H-pyrrolo[2,3-b]pyridin-3-yl)pyridin-2-yl)piperidine-1-carboxamide], for which the Ki is less than 3 nM in experiment [1] and 3 to 30 nM in experiment [2].
Turning to `c1cc(-c2c[nH]c3nccc(Oc4ccc5c(c4)CNCC5)c23)cc(NCc2nccs2)n1` [Example 35, 4-(4-((1,2,3,4-tetrahydroisoquinolin-7-yl)oxy)-1H-pyrrolo[2,3-b]pyridin-3-yl)-N-(thiazol-2-ylmethyl)pyridin-2-amine], the Ki in experiment [1] and in experiment [2] was less than 3 nM throughout.

As usually defined, the Ki is the dissociation constant of the complex between target and ligand, obtained from inhibition or displacement. High values mean lower affinity, low ones higher affinity.
